The results in this text go back to BindingDB's records for doi:10.1021/jm00095a005 (Pfizer, 1992).

The test concerns the target Platelet-activating factor receptor (Oryctolagus cuniculus). Description: In vitro inhibition of PAF-induced aggregation of rabbit washed platelets.
The compound `CCOC(=O)C1=C(c2ccc(-n3c(C)nc4cnccc43)cc2)N=C(C)C(C(=O)OC(C)(C)C)C1c1ccccc1Cl` (stereo unspecified) displayed an IC50 of 1.3 nM.
Take `CCOC(=O)C1=C(c2ccc(-n3c(C)nc4ccncc43)cc2)N=C(C)C(C(=O)Nc2ccccn2)C1c1ccccc1Cl` (stereo unspecified): the midpoint of inhibition, the IC50, lay at 22 nM.
Under `CCOC(=O)C1=C(c2ccc(-n3c(C(F)(F)F)nc4cnccc43)cc2)N=C(C)C(C(=O)Nc2ccccn2)C1c1ccccc1Cl` (stereo unspecified) stands 30 nM; under `CCOC(=O)C1=C(c2ccc(-c3ocnc3C)cc2)N=C(C)C(C(=O)Nc2ccccn2)C1c1ccccc1Cl` (stereo unspecified), 200 nM.
Compound `CCOC(=O)C1=C(c2ccc(-n3c(C)nc4cnccc43)cc2)N=C(C)C(C(N)=O)C1c1ccccc1Cl` (stereo unspecified) showed an IC50 of 5.6 nM.
Under `CCOC(=O)C1=C(c2ccc(-n3ccnc3C)cc2)N=C(C)C(C(=O)Nc2ccccn2)C1c1ccccc1Cl` (stereo unspecified) stands 23 nM; under `CCOC(=O)C1=C(c2ccc(-n3c(C)nc4cnccc43)cc2)N=C(C)C(C(=O)O)C1c1ccccc1Cl` (stereo unspecified), 14 nM; under `CCOC(=O)C1=C(c2ccc(-n3c(C)nc4c(OC)ncnc43)cc2)N=C(C)C(C(=O)Nc2ccccn2)C1c1ccccc1Cl` (stereo unspecified), 270 nM.
Under `CCOC(=O)C1=C(c2ccc(-n3c(C)nc4cnccc43)cc2)N=C(C)C(C(=O)OC)C1c1ccccc1Cl` (stereo unspecified) stands 1.6 nM.
`CCOC(=O)C1=C(c2ccc(-n3c(C)nc4cnccc43)cc2)N=C(C)C(C(=O)NC(C)(C)C)C1c1ccccc1Cl` (stereo unspecified): the IC50 was determined as 3.2 nM. This IC50 lies about 2-fold higher than the previous one.
As for `CCOC(=O)C1=C(c2ccc(-n3c(C)nc4cnccc43)cc2)N=C(C)C(C(=O)Nc2ccccn2)C1c1ccc(C#N)cc1` (stereo unspecified), the IC50 turned out to be 25 nM.
Under `CCOC(=O)C1=C(c2ccc(-n3nc(C)cc3C)cc2)N=C(C)C(C(=O)Nc2ccccn2)C1c1ccccc1Cl` (stereo unspecified) stands more than 10000 nM; under `CCOC(=O)C1=C(c2ccc(-n3c(C)nnc3C)cc2)N=C(C)C(C(=O)Nc2ccccn2)C1c1ccccc1Cl` (stereo unspecified), 12 nM.
Compound `CCOC(=O)C1=C(c2ccc(-c3c(C)nc4ccccn34)cc2)N=C(C)C(C(=O)Nc2ccccn2)C1c1ccccc1Cl` (stereo unspecified) gave an IC50 of 2.1 nM.
The compound `CCOC(=O)C1=C(c2ccc(-n3c(C)nc4cnccc43)cc2)N=C(C)C(C(=O)Nc2ccccn2)C1c1cccnc1` (stereo unspecified) displayed an IC50 of 33 nM. This IC50 lies about 16-fold higher than the previous one.
To `CCOC(=O)C1=C(c2ccc(-n3c(C)nc4cnccc43)cc2)N=C(C)C(C(=O)Nc2ccccn2)C1c1ccccn1` (stereo unspecified) belongs 14 nM; to `CCOC(=O)C1=C(c2ccc(-n3cnc(C)c3)cc2)N=C(C)C(C(=O)Nc2ccccn2)C1c1ccccc1Cl` (stereo unspecified), 580 nM; to `CCOC(=O)C1=C(c2ccc(-c3c(C)nc4sccn34)cc2)NC(C)=C(C(=O)Nc2ccccn2)C1c1ccccc1Cl` (stereo unspecified), 5 nM.
To `CCOC(=O)C1=C(c2ccc(-n3c(C)nc4cnccc43)cc2)N=C(C)C(C(=O)Nc2ccccn2)C1c1cccnc1Cl` (stereo unspecified) belongs 13 nM.
To `CCOC(=O)C1=C(c2ccc(-n3cc(C)nc3C)cc2)N=C(C)C(C(=O)Nc2ccccn2)C1c1ccccc1Cl` (stereo unspecified) belongs 13 nM.
Compound `CCOC(=O)C1=C(c2ccc(-n3c(C)nc4cnccc43)cc2)N=C(C)C(C(=O)Nc2ccccn2)C1c1csc2ccccc12` (stereo unspecified) yielded an IC50 of 3.1 nM.
`CCOC(=O)C1=C(c2ccc(-n3c(C)nc4cnccc43)cc2)N=C(C)C(C(=O)Nc2ccccn2)C1c1cccc2c1OCO2` (stereo unspecified) displayed a 50% inhibitory concentration (IC50) of 3.2 nM.
Under `CCOC(=O)C1=C(c2ccc(-n3c(C)nc4c(C)nc(C)cc43)cc2)N=C(C)C(C(=O)Nc2ccccn2)C1c1ccccc1Cl` (stereo unspecified) stands 5.9 nM; under `CCCCc1nc2cnccc2n1-c1ccc(C2=C(C(=O)OCC)C(c3ccccc3Cl)C(C(=O)Nc3ccccn3)C(C)=N2)cc1` (stereo unspecified), 190 nM; under `CCOC(=O)C1=C(c2ccc(-n3c(C)nc4cnccc43)cc2)N=C(C)C(C(=O)Nc2ccccn2)C1c1ccccc1OC(F)(F)F` (stereo unspecified), 2.3 nM.
Under `CCOC(=O)C1=C(c2ccc(-n3c(C)nc4cccnc43)cc2)N=C(C)C(C(=O)Nc2ccccn2)C1c1ccccc1Cl` (stereo unspecified) stands 28 nM.
